Test results from patent US5606038A, “Amphiphilic polyene macrolide antibiotic compounds” (Competitive Technologies, Inc., priority 1995, dated 1997).
Values after ≈ are worked out from the molar mass of the structure shown. Read-outs that look alike come from different tables or passages of the source.

Experiments:
[1] = critical micelle concentration in PBS by molar absorptivity at 409 nm; format: physicochemical; details: PBS (pH 7.4), 37° C.
Text: In its monomeric state, Amphotericin B has a characteristic absorption band at 409 nm; upon aggregation, however, its apparent molar absorptivity decreases in magnitude [see Biochemistry 30:5707 (1991)]. Thus, by measuring its molar absorptivity as a function of the reciprocal of the macrolide concentration, one can estimate the critical micelle concentration. This can be shown mathematically by allowing T, m and P to represent the total, monomeric, and micellar concentrations (i.e. the concentration of the drug that is present in micellar form) of the macrolide, respectively, and if ε represents the apparent molar absorptivity and εm and εp are the molar absorptivity for the monomeric and micellar components, respectively, then it can be shown that ε=εp +(εm -εp)m/T. At concentrations in excess of the critical micelle concentration, m is a constant and ε is inversely proportional to T.
Using the method described previously, the critical micelle concentrations for Amphotericin B and the conjugates described in the preceding examples were determined and are reported in Table I describing the aggregation, antifungal and hemolytic properties of […] macrolide antibiotics (in μM amounts) according to the present invention.
^a critical micelle concentration was determined in PBS (pH 7.4) at […]

Candida albicans = experiment: minimum inhibitory concentration, Candida albicans, broth microdilution; format: cell-based; details: 24 h, 37° C.
Procedure: ^c minimum inhibitory concentration (see Example IV); three different
strains of Candida albicans were tested; all tests were done in broth
microdilution in yeast nitrogen baseglucose at 37° C. for 24 hours
the initial inoculum was 1 × 10^4 blastospores per ml
The minimum inhibitory concentration reported in Table I was obtained, and further confirmed as reported in Table II, by the methods described in the following Example IV.
(§1) Microorganism inocula was harvested from one to five day old cultures grown on Sabourand's dextrose agar. After two washes with sterile saline, the inocula were counted utilizing a hemacytometer and diluted or concentrated as required to 1×10^4 blastospores per ml. Sterile molten agar (at 50° C.) was inoculated, allowed to cool, and 10 mm diameter discs impregnated (from […] stock solutions) with each of the test compounds was placed on the surface of the agar. Zones of inhibition were measured after incubating the plates at 30° C. for 24-48 hours.
(§2) The compounds were then screened against three strains of three species of microorganisms: Candida albicans, Cryptococcus neoformans, and Aspergillus fumigatus using a conventional double dilution technique. All tests reported in Table II were done by broth microdilution in yeast nitrogen base-glucose using an inoculum of 1×10^4 blastospores per ml; the cultures were incubated at 37° C. for 24 hours, and the minimum concentration (in μg/ml) that prevents visible growth was recorded as the minimum inhibitory concentration.

[2] = UV-vis spectroscopy of interaction with ergosterol-containing large unilamellar vesicles; details: Example II: 2.6 μM; 1 mM egg phosphatidyl choline and 0.5 mM ergosterol; 20 minutes, 23° C.
Text: (§3) In order to confirm that the poly(ethylene glycol)conjugates of the present invention retain their ability to recognize ergosterol-rich bilayers, their interaction with sterol-containing large unilamellar vesicles (1000 A diameter, LUVs) by UV-vis spectroscopy using published techniques [see J. Am. Chem. Soc. 115:708 (1993)]. […] Thus, the poly(ethylene glycol) conjugates according to the present invention recognize ergosterol-rich bilayers in a way that is similar to Amphotericin B.

[3] = UV-vis spectroscopy of interaction with cholesterol-containing large unilamellar vesicles; details: 2.6 μM; 1 mM egg PC and 0.5 mM cholesterol; 20 minutes, 23° C.
Text: as §3

[4] = system: Cryptococcus neoformans (isolate NIH C-1); experiment: MIC against infecting isolate of Example VI; format: cell-based
C. neoformans = experiment: second in vivo assay, survival of mice infected with C. neoformans; parameters: species or system C. neoformans in ICR mice; details: 5 mg/kg subcutaneous BID
Procedure: (§4) Ten immunocompetent ICR mice weighing 30 g each in two groups were inoculated intravenously with 255 colony forming units of Cryptococcus neoformans (isolate NIH C-1) per mouse.
A second in vivo assay was conducted as in Example VI with the exception that infection was with 488 colony forming units of C. neoformans, and that the test compound was administered 5 mg/kg, subcutaneous, BID.

solubility in water = format: physicochemical
Aspergillus fumigatus = experiment: minimum inhibitory concentration, Aspergillus fumigatus, broth microdilution; format: cell-based; details: 24 h, 37° C.
Procedure: as §1, §2

[5] = system: Cryptococcus neoformans (isolate NIH C-1); experiment: survival of mice infected with Cryptococcus neoformans (Example VI); format: in vivo, Cryptococcus neoformans in ICR mice; details: 30 mg/kg i.p. once per day
Text: as §4

[6] = hemolysis, 50% release of hemoglobin from human red blood cells; details: human, red blood cells
[7] = system: Candida albicans (isolate NIH A); experiment: survival of mice infected with Candida albicans (Example V); format: in vivo, Candida albicans in ICR mice; details: i.p. once per day for ten days, Example II 30 mg/kg, Amphotericin B 1 mg/kg
Text: Ten immunocompetent ICR mice weighing 30 g each in three groups were inoculated intravenously with 3.2×10^6 colony forming units of Candida albicans (isolate NIH A) per mouse.

COCCOCCOCCOCCOCCOCCNC(=O)[C@H]1[C@@H]2C[C@@H](O[C@@H]3O[C@H](C)[C@@H](O)[C@H](N)[C@@H]3O)/C=C/C=C/C=C/C=C/C=C/C=C/C=C/[C@H](C)[C@@H](O)[C@@H](C)[C@H](C)OC(=O)C[C@H](O)C[C@H](O)CC[C@@H](O)[C@H](O)C[C@H](O)C[C@](O)(C[C@@H]1O)O2 [Example II]
cmc (critical micelle concentration) [1]: 25 µM
MIC (Candida albicans; C. albicans (1), read-out: minimum inhibitory concentration): 6.4 µg/mL
MIC (Candida albicans; C. albicans (2), read-out: minimum inhibitory concentration): 3.2 µg/mL
MIC (Candida albicans; C. albicans (3), read-out: minimum inhibitory concentration): 3.2 µg/mL
MIC (Candida albicans; three strains of Candida albicans, yeast nitrogen base-glucose, 1 × 10^4 blastospores per ml, read-out: MIC (minimum inhibitory concentration)): 2.7 µM
absorption spectrum change with ergosterol-containing vesicles [2]: strong diminution in the monomer band at 409 nm and new bands at 415, 390 and 375 nm
absorption spectrum with cholesterol-containing vesicles [3]: essentially the same as that observed in the presence of egg phosphatidyl choline vesicles (without sterol)
MIC [4]: ≤ 6.06 µg/mL
MIC ([4]; 48 h): 1.51 µg/mL (≈ 1.26 µM)
MIC ([4]; 72 h): 3.03 µg/mL (≈ 2.52 µM)
percent survival (C. neoformans; day 11 post-infection): 100%
percent survival (C. neoformans; day 12 post-infection): 80%
percent survival (C. neoformans; day 13 post-infection): 60%
percent survival (C. neoformans; day 14 post-infection): 60%
percent survival (C. neoformans; day 15 post-infection): 60%
percent survival (C. neoformans; day 16 post-infection): 60%
percent survival (C. neoformans; day 17 post-infection): 60%
percent survival (C. neoformans; day 19 post-infection): 60%
percent survival (C. neoformans; day 20 post-infection): 60%
percent survival (C. neoformans; day 21 post-infection): 60%
percent survival (C. neoformans; day 22 post-infection): 60%
percent survival (C. neoformans; day 23 post-infection): 40%
percent survival (C. neoformans; day 24 post-infection): 20%
percent survival (C. neoformans; day 27 post-infection): 20%
percent survival (C. neoformans; day 28 post-infection): 10%
percent survival (C. neoformans; day 29 post-infection): 10%
percent survival (C. neoformans; day 30 post-infection): 0%
solubility (solubility in water): ≥ 10000 µg/mL
MIC (Aspergillus fumigatus; A. fumigatus (1)): 6.4 µg/mL (≈ 5.33 µM)
MIC (Aspergillus fumigatus; A. fumigatus (2)): 3.2 µg/mL (≈ 2.66 µM)
MIC (Aspergillus fumigatus; A. fumigatus (3)): 3.2 µg/mL (≈ 2.66 µM)
percent survival ([5]; day 9 post-infection): 100%
percent survival ([5]; day 10 post-infection): 100%
percent survival ([5]; day 13 post-infection): 100%
percent survival ([5]; day 14 post-infection): 90%
percent survival ([5]; day 15 post-infection): 90%
percent survival ([5]; day 16 post-infection): 90%
percent survival ([5]; day 17 post-infection): 90%
percent survival ([5]; day 18 post-infection): 90%
percent survival ([5]; day 19 post-infection): 90%
percent survival ([5]; day 20 post-infection): 90%
percent survival ([5]; day 21 post-infection): 90%
percent survival ([5]; day 22 post-infection): 70%
percent survival ([5]; day 25 post-infection): 70%
percent survival ([5]; day 26 post-infection): 60%
percent survival ([5]; day 27 post-infection): 60%
percent survival ([5]; day 28 post-infection): 50%
percent survival ([5]; day 29 post-infection): 50%
percent survival ([5]; day 30 post-infection): 40%
HC50 at 1 h [6]: 42 µM
percent survival ([7]; day 2 post-infection): 100%
percent survival ([7]; day 3 post-infection): 100%
percent survival ([7]; day 4 post-infection): 100%
percent survival ([7]; day 5 post-infection): 100%
percent survival ([7]; day 6 post-infection): 100%
percent survival ([7]; day 7 post-infection): 90%
percent survival ([7]; day 30 post-infection): 90%
